Tested on: lung gene expression
Assay: RNA sequencing of lung tissue (BLM/EL244 vs BLM)
Type: in vivo, mouse
Conditions: lung tissue of BLM-treated mice, BLM/EL244 vs BLM
Description: RNA quality was assessed using an Agilent TapeStation 4150 with the High Sensitivity […] ScreenTape (Agilent), according to the manufacturer’s protocols. For library preparation, the QuantSeq 3’mRNA-Seq Library Prep Kit (Lexogen) was used according to manufacturer’s instructions. Briefly, 500 ng of RNA from each sample was used for first-strand synthesis, followed by RNA template removal, and second-strand synthesis initiated by random primers. In-line barcodes were introduced at this step, and this was followed by magnetic bead-based purification. The resulting libraries were amplified for 15 cycles and re-purified, with quantity and quality assessed on a Qubit 4 Fluorometer with the Invitrogen Qubit dsDNA HS Assay and an Agilent Tapestation 4150 with the High Sensitivity D1000 assay kit, respectively. The quantified libraries were pooled equimolarly; 50ng of total library mix was used for Adapter Conversion PCR Amplification using the Universal Library Conversion Kit (App-A), Version: V1.0 (MGI Tech Co., Ltd.), according to the manufacturer’s instructions.
The quantity and quality of the purified adapter conversion PCR (AC-PCR) product were evaluated on a Qubit 4 Fluorometer with the Invitrogen Qubit dsDNA HS Assay and on an Agilent Tapestation 4150 with the High Sensitivity D1000 assay kit, respectively. This was followed by DNA denaturation, Single-Strand Circularisation, Enzymatic Digestion, Enzymatic Digestion Product Cleanup and Quality Control steps on 1 pmol of AC-PCR product, according to the Universal Library Conversion Kit (App-A) User Manual (Version: A3).
Finally, 60 fmol of ssCirDNA were used for DNB preparation and sequencing on a DNBSEQ-G400 platform at the BSRC Alexander Fleming Genomics Facility, using a G400 App-A FCS SE100 High-throughput Sequencing Set (MGI Tech Co., Ltd.), according to the manufacturer’s instructions.
Alignment of the FASTQ files was performed against the mouse genome build mm10 using a custom Bash script.[143] Read counting on the 3′ UTRs and differential expression analysis were conducted using the metaseqR2 bioconductor package.[144] Genes corresponding to the following biotypes were excluded: polymorphic_pseudogene, processed_transcript, pseudogene, IG_V_pseudogene, misc_RNA, IG_C_gene, IG_J_gene, IG_D_gene, IG_LV_gene, TR_V_gene, TR_V_pseudogene, TEC, and processed_pseudogene. Gene counts were normalized with DESEQ[145] through metaseqR2. Genes with more than 10 counts in at least 50% of the samples were kept for further processing. For differential expression analysis, the PANDORA algorithm[146] was used to estimate a meta p-value integrating the results from the DESEQ, DESEQ2,[147] edgeR,[148] limma,[149] NBPSeq,[150] and NOISeq[151] algorithms. All additional parameters were set to default values.
Pathway enrichment analysis was performed for the Gene Ontology Biological process (BP) and Molecular Function (MF) terms through GeneCodis 4.[152] The volcano plots, scatterplots, Venn diagrams, and dot plots were generated using the ggplot2 Bioconductor package.

O=C1NC(=O)C(Cc2ccc(OCCC3CCN(C(=O)OCc4cc(Cl)cc(Cl)c4)CC3)cc2)S1 (centres unmarked) [EL244, 3,5-dichlorobenzyl 4-(2-(4-((2,4-dioxothiazolidin-5-yl)methyl)phenoxy)ethyl)piperidine-1-carboxylate]
Ces2g log2 nFC: 0.83
Ces2g nFC: 1.78
Cfap43 log2 nFC: 0.88
Cfap43 nFC: 1.84
Cfap100 log2 nFC: 0.89
Cfap100 nFC: 1.85
Cfap206 log2 nFC: 0.77
Cfap206 nFC: 1.70
Cftr log2 nFC: 0.96
Cftr nFC: 1.95
Cldn5 log2 nFC: 0.97
Cldn5 nFC: 1.96
Cpm log2 nFC: 0.68
Cpm nFC: 1.60
Crebl2 log2 nFC: 0.79
Crebl2 nFC: 1.73
Crem log2 nFC: 0.68
Crem nFC: 1.60
Crispld2 log2 nFC: 0.80
Crispld2 nFC: 1.74
Cry2 log2 nFC: 0.70
Cry2 nFC: 1.62
Csrnp1 log2 nFC: 0.83
Csrnp1 nFC: 1.78
Ctla2a log2 nFC: 0.72
Ctla2a nFC: 1.65
Ctla2b log2 nFC: 0.96
Ctla2b nFC: 1.94
Cyp2d22 log2 nFC: 0.97
Cyp2d22 nFC: 1.97
Cyp2f2 log2 nFC: 0.79
Cyp2f2 nFC: 1.72
Dgkh log2 nFC: 0.84
Dgkh nFC: 1.79
Dnali1 log2 nFC: 0.73
Dnali1 nFC: 1.66
Dok4 log2 nFC: 0.74
Dok4 nFC: 1.67
Dpep1 log2 nFC: 0.71
Dpep1 nFC: 1.63
Dusp1 log2 nFC: 0.86
Dusp1 nFC: 1.82
Ednrb log2 nFC: 0.97
Ednrb nFC: 1.96
Elmod1 log2 nFC: 0.89
Elmod1 nFC: 1.86
Eng log2 nFC: 0.81
Eng nFC: 1.76
Errfi1 log2 nFC: 0.95
Errfi1 nFC: 1.93
Fabp3 log2 nFC: 0.98
Fabp3 nFC: 1.97
Fmo1 log2 nFC: 0.86
Fmo1 nFC: 1.81
Fmo2 log2 nFC: 1.00
Fmo2 nFC: 2.00
Fos log2 nFC: 1.02
Fos nFC: 2.03
Fxyd1 log2 nFC: 0.80
Fxyd1 nFC: 1.75
Fzd4 log2 nFC: 0.69
Fzd4 nFC: 1.61
Galnt15 log2 nFC: 0.89
Galnt15 nFC: 1.85
Gm26236 log2 nFC: 1.03
Gm26236 nFC: 2.04
Gm47291 log2 nFC: 0.98
Gm47291 nFC: 1.98
Gm49391 log2 nFC: 0.96
Gm49391 nFC: 1.95
Gnao1 log2 nFC: 0.85
Gnao1 nFC: 1.80
Gpm6a log2 nFC: 0.83
Gpm6a nFC: 1.78
Gpr155 log2 nFC: 0.76
Gpr155 nFC: 1.69
Gprasp1 log2 nFC: 0.72
Gprasp1 nFC: 1.64
Gpt log2 nFC: 0.73
Gpt nFC: 1.66
Gsn log2 nFC: 1.06
Gsn nFC: 2.08
Gstm1 log2 nFC: 0.75
Gstm1 nFC: 1.68
Hecw2 log2 nFC: 0.81
Hecw2 nFC: 1.75
Hlf log2 nFC: 0.89
Hlf nFC: 1.86
Igf1r log2 nFC: 0.70
Igf1r nFC: 1.63
Il6ra log2 nFC: 0.84
Il6ra nFC: 1.79
Iqca log2 nFC: 0.87
Iqca nFC: 1.83
Itga8 log2 nFC: 0.88
Itga8 nFC: 1.85
Itih4 log2 nFC: 0.88
Itih4 nFC: 1.84
Iyd log2 nFC: 1.04
Iyd nFC: 2.05
Jdp2 log2 nFC: 0.71
Jdp2 nFC: 1.64
Klf3 log2 nFC: 0.69
Klf3 nFC: 1.62
Klf4 log2 nFC: 0.72
Klf4 nFC: 1.64
Klf9 log2 nFC: 0.85
Klf9 nFC: 1.80
Klrd1 log2 nFC: 0.95
Klrd1 nFC: 1.93
Kndc1 log2 nFC: 1.05
Kndc1 nFC: 2.07
Krt23 log2 nFC: 0.69
Krt23 nFC: 1.61
Lncpint log2 nFC: 1.06
Lncpint nFC: 2.08
Lpin1 log2 nFC: 0.80
Lpin1 nFC: 1.75
Lrrc74b log2 nFC: 1.02
Lrrc74b nFC: 2.03
Ltbp4 log2 nFC: 0.81
Ltbp4 nFC: 1.76
Lyve1 log2 nFC: 0.96
Lyve1 nFC: 1.94
Map3k6 log2 nFC: 0.95
Map3k6 nFC: 1.93
Mapt log2 nFC: 0.89
Mapt nFC: 1.85
Mcf2l log2 nFC: 0.95
Mcf2l nFC: 1.93
Mettl7a1 log2 nFC: 0.80
Mettl7a1 nFC: 1.75
Mir29c log2 nFC: 0.89
Mir29c nFC: 1.85
Mir1668 log2 nFC: 0.75
Mir1668 nFC: 1.69
Mir6899 log2 nFC: 0.84
Mir6899 nFC: 1.80
Mtcl1 log2 nFC: 0.73
Mtcl1 nFC: 1.66
Ndrg2 log2 nFC: 0.88
Ndrg2 nFC: 1.84
Nek5 log2 nFC: 0.81
Nek5 nFC: 1.76
Nova2 log2 nFC: 0.90
Nova2 nFC: 1.86
Nr1d1 log2 nFC: 0.84
Nr1d1 nFC: 1.79
Nrgn log2 nFC: 1.04
Nrgn nFC: 2.05
Nrxn2 log2 nFC: 0.88
Nrxn2 nFC: 1.84
Ogn log2 nFC: 0.86
Ogn nFC: 1.82
Osgin1 log2 nFC: 0.74
Osgin1 nFC: 1.68
Pcolce2 log2 nFC: 0.98
Pcolce2 nFC: 1.97
Pcp4l1 log2 nFC: 0.75
Pcp4l1 nFC: 1.68
Phactr1 log2 nFC: 0.74
Phactr1 nFC: 1.67
Phf1 log2 nFC: 0.75
Phf1 nFC: 1.68
Pla2g1b log2 nFC: 0.79
Pla2g1b nFC: 1.72
Plxna2 log2 nFC: 0.78
Plxna2 nFC: 1.72
Ppargc1a log2 nFC: 0.86
Ppargc1a nFC: 1.82
Ppl log2 nFC: 0.87
Ppl nFC: 1.83
Prob1 log2 nFC: 0.76
Prob1 nFC: 1.70
Ptgfr log2 nFC: 0.93
Ptgfr nFC: 1.90
Pxdc1 log2 nFC: 0.83
Pxdc1 nFC: 1.78
Rapgef5 log2 nFC: 0.88
Rapgef5 nFC: 1.84
Rara log2 nFC: 0.73
Rara nFC: 1.66
Rgs9 log2 nFC: 1.01
Rgs9 nFC: 2.02
Rora log2 nFC: 0.80
Rora nFC: 1.74
S1pr4 log2 nFC: 0.94
S1pr4 nFC: 1.91
Scn3a log2 nFC: 0.75
Scn3a nFC: 1.68
Scube2 log2 nFC: 0.74
Scube2 nFC: 1.68
Sec14l3 log2 nFC: 0.69
Sec14l3 nFC: 1.62
Sec14l4 log2 nFC: 0.77
Sec14l4 nFC: 1.70
Sell log2 nFC: 1.03
Sell nFC: 2.04
Sema3g log2 nFC: 0.78
Sema3g nFC: 1.72
Sftpa1 log2 nFC: 0.70
Sftpa1 nFC: 1.62
Sgip1 log2 nFC: 0.90
Sgip1 nFC: 1.87
Sgms1 log2 nFC: 0.71
Sgms1 nFC: 1.63
Slc2a4rg-ps log2 nFC: 0.85
Slc2a4rg-ps nFC: 1.80
Slc7a10 log2 nFC: 0.97
Slc7a10 nFC: 1.96
Slc16a11 log2 nFC: 0.79
Slc16a11 nFC: 1.73
Slc43a3 log2 nFC: 0.73
Slc43a3 nFC: 1.66
Slit3 log2 nFC: 1.02
Slit3 nFC: 2.03
Snora21 log2 nFC: 0.75
Snora21 nFC: 1.68
Sntb1 log2 nFC: 0.72
Sntb1 nFC: 1.64
Sorbs1 log2 nFC: 0.70
Sorbs1 nFC: 1.62
Sorbs3 log2 nFC: 0.80
Sorbs3 nFC: 1.74
Srcin1 log2 nFC: 0.91
Srcin1 nFC: 1.87
Stard8 log2 nFC: 0.69
Stard8 nFC: 1.61
Syne1 log2 nFC: 0.70
Syne1 nFC: 1.62

Source: publication PMC13198257, “An aerosolized dual-action autotaxin inhibitor-PPARγ agonist for the treatment of pulmonary fibrosis” (Cell Reports Medicine, 2026)
